{"source": "patent US20230151021A1", "about": "“Compounds and Compositions for Treating Hematologic Malignancies” (priority 2020, published 2023)", "key": {"[1]": {"tested_on": "Raji cells", "test": "cells", "assay_type": "cell-based, human", "conditions": "100 nM for 72 h"}, "[2]": {"tested_on": "13 cell lines representing a range of hematologic malignancies", "test": "Cell viability in panel of hematologic malignancy derived cell lines", "conditions": "100 nM, 72 hours", "protocol": "Cell viability was determined after 72 hours by detecting luminescence. ALL, acute lymphoblastic leukemia; BL, Burkitt's lymphoma; DLBCL, diffuse large B-cell lymphoma; MCL, mantle cell lymphoma; AML, acute myeloid leukemia; MM, multiple myeloma; LCLs, lymphoblastoid cell lines.\n(§2) 5000 cells as indicated were cultured in 96-well plate with 100 μl of media. On the next day, Brusatol or associated analogs were added once to the cells without media change. After treatment, the cells were incubated with 100 μl buffer for 10 minutes at room temperature following the instructions of CellTiter-Glo kit (Promega, Madison, Wis.). Luminescence was detected using a multi-mode reader Cytation 5 (BioTek, Winooski, Vt.). Brusatol or its analogs are dissolved in 100% ethanol and diluted in 1×PBS for treatment. Two independent experiments done in duplicates were performed."}, "[3]": {"conditions": "plasma, 1 h"}, "[4]": {"conditions": "plasma, 1 h", "remark": "listed apart in the source"}, "[5]": {"tested_on": "PDX129", "test": "IC50 assays of biotin-conjugated compounds in multiple PDXs and lymphoma cells", "conditions": "Homo sapiens", "protocol": "as §2"}, "[6]": {"tested_on": "PDX223", "test": "IC50 assays of biotin-conjugated compounds in multiple PDXs and lymphoma cells", "conditions": "Homo sapiens", "protocol": "as §2"}, "[7]": {"tested_on": "Toledo", "test": "IC50 assays of biotin-conjugated compounds in multiple PDXs and lymphoma cells", "conditions": "Homo sapiens", "protocol": "as §2"}, "[8]": {"tested_on": "Pfeiffer", "test": "IC50 assays of biotin-conjugated compounds in multiple PDXs and lymphoma cells", "conditions": "Homo sapiens", "protocol": "as §2"}, "[9]": {"tested_on": "Jeko-1", "test": "IC50 assays of biotin-conjugated compounds in multiple PDXs and lymphoma cells", "conditions": "Homo sapiens", "protocol": "as §2"}, "[10]": {"biological_target": "T1, PI3Kγ (Homo sapiens, UniProt P48736)", "T1 construct": "endogenous in cells; host or cells: SU-DHL-4 cells (lysate)", "T1 sequence (P48736 whole entry)": "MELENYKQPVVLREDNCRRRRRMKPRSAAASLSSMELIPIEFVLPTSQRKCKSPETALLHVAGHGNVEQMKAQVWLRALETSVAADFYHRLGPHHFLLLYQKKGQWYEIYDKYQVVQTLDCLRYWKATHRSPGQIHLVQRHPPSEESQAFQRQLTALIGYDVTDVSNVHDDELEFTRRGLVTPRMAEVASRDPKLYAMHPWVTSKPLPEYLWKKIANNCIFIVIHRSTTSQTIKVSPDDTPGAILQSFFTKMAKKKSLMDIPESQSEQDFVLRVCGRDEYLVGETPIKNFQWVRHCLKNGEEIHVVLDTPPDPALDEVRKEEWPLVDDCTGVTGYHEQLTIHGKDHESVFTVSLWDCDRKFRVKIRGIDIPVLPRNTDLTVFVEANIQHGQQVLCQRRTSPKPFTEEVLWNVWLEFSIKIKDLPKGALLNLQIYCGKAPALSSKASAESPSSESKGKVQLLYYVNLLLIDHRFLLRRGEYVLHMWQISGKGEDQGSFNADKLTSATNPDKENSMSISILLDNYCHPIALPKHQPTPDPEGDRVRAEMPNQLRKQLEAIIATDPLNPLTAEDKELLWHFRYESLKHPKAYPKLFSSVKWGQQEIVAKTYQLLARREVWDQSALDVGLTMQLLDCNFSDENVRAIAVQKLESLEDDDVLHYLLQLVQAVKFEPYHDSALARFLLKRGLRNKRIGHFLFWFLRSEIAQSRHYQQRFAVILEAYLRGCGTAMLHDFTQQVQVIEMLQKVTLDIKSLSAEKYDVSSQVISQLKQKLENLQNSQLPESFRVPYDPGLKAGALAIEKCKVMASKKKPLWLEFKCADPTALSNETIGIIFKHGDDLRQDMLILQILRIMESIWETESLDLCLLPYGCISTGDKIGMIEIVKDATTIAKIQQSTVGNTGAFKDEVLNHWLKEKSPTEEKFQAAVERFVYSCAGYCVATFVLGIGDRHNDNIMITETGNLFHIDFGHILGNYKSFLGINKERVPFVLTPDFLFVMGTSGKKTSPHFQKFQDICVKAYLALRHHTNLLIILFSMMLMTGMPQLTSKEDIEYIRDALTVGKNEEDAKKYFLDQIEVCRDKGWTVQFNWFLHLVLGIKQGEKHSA", "test": "Biotin pull-down / competitive binding assay in SU-DHL-4 cell lysates", "conditions": "SU-DHL-4 lysate, without parent Brusatol", "method": "(§1) 30 μg of purified GST-tagged proteins were pre-cleared with Dynabeads M-280 Streptavidin (Invitrogen, Carlsbad, Calif., USA). The supernatants were collected and incubated with Dynabeads M-280 Streptavidin and 0, 300 μM, or 500 μM of biotin-conjugated Brusatol derivatives (51052) overnight at 4° C. For the competitive binding assays, cell lysates from SU-DHL-4 cells were incubated with the biotin-conjugated Brusatol derivative (51048) alone or together with Brusatol as well as Dynabeads M-280 Streptavidin. The complexes were harvested and washed with PBS. The collected beads were mixed with SDS loading buffer for further analysis."}, "[11]": {"biological_target": "GST-tagged PI3Kγ (Homo sapiens, UniProt P48736)", "sequence (P48736 whole entry)": "as above", "test": "Pull-down assay with purified GST-tagged protein", "assay_type": "binding", "conditions": "0, 300 μM, or 500 μM", "method": "PIK3CG cDNA (Plasmid #20574) was purchased from Addgene and cloned into a pGEX-6P-1 vector (GE Healthcare, Madison, Wis., USA). This GST-tagged PIK3CG plasmid was transformed into E. coli BL21 (DE3)-competent cells (Life Technologies, Carlsbad, Calif., USA) for in vitro expression according to Molecular Cloning (Third Edition).\nas §1"}}, "note": "Structures can show the parent of a compound that is named as a salt.", "data": [{"smiles": "COC(=O)[C@@]12OC[C@]34C([C@@H](O)[C@@H]1O)[C@@]1(C)CC(=O)C(OC(=O)C5CCCN5C(=O)OC(C)(C)C)=C(C)[C@@H]1C[C@H]3OC(=O)[C@H](OC(=O)C=C(C)C)[C@@H]24", "note": "(stereo partly drawn) [Compound 11, 1-(tert-butyl) 2-((1R,2S,3S,3aS,3a1R,4R,6aR,7aR,11aS)-1,2-dihydroxy-3-(methoxycarbonyl)-8,11a-dimethyl-4-((3-methylbut-2-enoyl)oxy)-5,10-dioxo-1,3,3a,4,5,6a,7,7a,10,11,11a,11b-dodecahydro-2H-3,3a1-(epoxymethano)dibenzo[de,g]chromen-9-yl)(2S)-pyrrolidine-1,2-dicarboxylate]", "values": [{"measurement": "activity on viability of Raji cells (in words)", "setting": "[1]", "result": "moderate inhibition"}]}, {"smiles": "COC(=O)[C@@]12OC[C@]34C([C@@H](O)[C@@H]1O)[C@@]1(C)CC(=O)C(OC(=O)[C@@H](N)Cc5ccccc5)=C(C)[C@@H]1C[C@H]3OC(=O)[C@H](OC(=O)C=C(C)C)[C@@H]24", "note": "(stereo partly drawn) [Compound 14, methyl (1R,2S,3S,3aS,3a1R,4R,6aR,7aR,11aS)-9-((L-phenylalanyl)oxy)-1,2-dihydroxy-8,11a-dimethyl-4-((3-methylbut-2-enoyl)oxy)-5,10-dioxo-1,4,5,6a,7,7a,10,11,11a,11b-decahydro-2H-3,3a1-(epoxymethano)dibenzo[de,g]chromene-3(3aH)-carboxylate]", "values": [{"measurement": "inhibition of cell viability (in words)", "setting": "[2]", "result": "significantly inhibit cell viability"}]}, {"smiles": "COC(=O)[C@@]12OC[C@]34C([C@@H](O)[C@@H]1O)[C@@]1(C)CC(=O)C(OC(=O)CNC(=O)CN)=C(C)[C@@H]1C[C@H]3OC(=O)[C@H](OC(=O)C=C(C)C)[C@@H]24", "note": "(stereo partly drawn) [Compound 20, methyl (1R,2S,3S,3aS,3a1R,4R,6aR,7aR,11aS)-9-((glycylglycyl)oxy)-1,2-dihydroxy-8,11a-dimethyl-4-((3-methylbut-2-enoyl)oxy)-5,10-dioxo-1,4,5,6a,7,7a,10,11,11a,11b-decahydro-2H-3,3a1-(epoxymethano)dibenzo[de,g]chromene-3(3aH)-carboxylate]", "values": [{"measurement": "activity on viability of Raji cells (in words)", "setting": "[1]", "result": "potent activities comparable to or higher than the parent brusatol"}]}, {"smiles": "COC(=O)[C@@]12OC[C@]34C([C@@H](O)[C@@H]1O)[C@@]1(C)CC(=O)C(OC(=O)C[C@H](C)NC(=O)C[C@H](C)N)=C(C)[C@@H]1C[C@H]3OC(=O)[C@H](OC(=O)C=C(C)C)[C@@H]24", "note": "(stereo partly drawn) [Compound 21, methyl (1R,2S,3S,3aS,3a1R,4R,6aR,7aR,11aS)-9-(((S)-3-((S)-3-aminobutanamido)butanoyl)oxy)-1,2-dihydroxy-8,11a-dimethyl-4-((3-methylbut-2-enoyl)oxy)-5,10-dioxo-1,4,5,6a,7,7a,10,11,11a,11b-decahydro-2H-3,3a1-(epoxymethano)dibenzo[de,g]chromene-3(3aH)-carboxylate]", "values": [{"measurement": "activity on viability of Raji cells (in words)", "setting": "[1]", "result": "potent activities comparable to or higher than the parent brusatol"}]}, {"smiles": "COC(=O)[C@@]12OC[C@]34C([C@@H](O)[C@@H]1O)[C@@]1(C)CC(=O)C(OC(=O)[C@H](C)NC(=O)[C@H](C)N)=C(C)[C@@H]1C[C@H]3OC(=O)[C@H](OC(=O)C=C(C)C)[C@@H]24", "note": "(stereo partly drawn) [Compound 22, methyl (1R,2S,3S,3aS,3a1R,4R,6aR,7aR,11aS)-9-((L-alanyl-L-alanyl)oxy)-1,2-dihydroxy-8,11a-dimethyl-4-((3-methylbut-2-enoyl)oxy)-5,10-dioxo-1,4,5,6a,7,7a,10,11,11a,11b-decahydro-2H-3,3a1-(epoxymethano)dibenzo[de,g]chromene-3(3aH)-carboxylate]", "values": [{"measurement": "activity on viability of Raji cells (in words)", "setting": "[1]", "result": "not active"}]}, {"smiles": "COC(=O)[C@@]12OC[C@]34C([C@@H](O)[C@@H]1O)[C@@]1(C)CC(=O)C(OC(=O)CNC(=O)CNC(=O)CN)=C(C)[C@@H]1C[C@H]3OC(=O)[C@H](OC(=O)C=C(C)C)[C@@H]24", "note": "(stereo partly drawn) [Compound 23, methyl (1R,2S,3S,3aS,3a1R,4R,6aR,7aR,11aS)-9-((glycylglycylglycyl)oxy)-1,2-dihydroxy-8,11a-dimethyl-4-((3-methylbut-2-enoyl)oxy)-5,10-dioxo-1,4,5,6a,7,7a,10,11,11a,11b-decahydro-2H-3,3a1-(epoxymethano)dibenzo[de,g]chromene-3(3aH)-carboxylate]", "values": [{"measurement": "activity on viability of Raji cells (in words)", "setting": "[1]", "result": "potent activities comparable to or higher than the parent brusatol"}]}, {"smiles": "COC(=O)[C@@]12OC[C@]34C([C@@H](O)[C@@H]1O)[C@@]1(C)CC(=O)C(OC(=O)C[C@H](C)N)=C(C)[C@@H]1C[C@H]3OC(=O)[C@H](OC(=O)C=C(C)C)[C@@H]24", "note": "(stereo partly drawn) [Compound 26-TFA]", "values": [{"measurement": "Plasma stability remaining % at 60 min, human", "setting": "[3]", "result": 44, "unit": "%"}, {"measurement": "Plasma stability remaining % at 60 min, rat", "setting": "[4]", "result": 39, "unit": "%"}]}, {"smiles": "COC(=O)[C@@]12OC[C@]34C([C@@H](O)[C@@H]1O)[C@@]1(C)CC(=O)C(OC(=O)[C@@H]5CCCN5)=C(C)[C@@H]1C[C@H]3OC(=O)[C@H](OC(=O)C=C(C)C)[C@@H]24", "note": "(stereo partly drawn) [Compound 31, (1R,2S,3S,3aS,3a1R,4R,6aR,7aR,11aS)-1,2-dihydroxy-3-(methoxycarbonyl)-8,11a-dimethyl-4-((3-methylbut-2-enoyl)oxy)-5,10-dioxo-1,3,3a,4,5,6a,7,7a,10,11,11a,11b-dodecahydro-2H-3,3a1-(epoxymethano)dibenzo[de,g]chromen-9-yl L-prolinate]", "values": [{"measurement": "activity on viability of Raji cells (in words)", "setting": "[1]", "result": "potent activities comparable to or higher than the parent brusatol"}, {"measurement": "inhibition of cell viability (in words)", "setting": "[2]", "result": "significantly inhibit cell viability"}]}, {"smiles": "CC(C)=CC(=O)O[C@H]1C(=O)O[C@@H]2C[C@H]3C(C)=C(O)C(=O)C[C@]3(C)C3[C@@H](O)[C@H](O)[C@@]4(C(=O)NCCCCCCNC(=O)CCC[C@@H]5SC[C@@H]6NC(=O)N[C@@H]65)OC[C@]32[C@@H]14", "note": "(stereo partly drawn) [Compound 51046, (1R,2S,3S,3aS,3a1R,4R,6aR,7aR,11aS)-1,2,9-trihydroxy-8,11a-dimethyl-5,10-dioxo-3-((6-(4-((3aS,4S,6aR)-2-oxohexahydro-1H-thieno[3,4-d]imidazol-4-yl)butanamido)hexyl)carbamoyl)-1,3,3a,4,5,6a,7,7a,10,11,11a,11b-dodecahydro-2H-3,3a1-(epoxymethano)dibenzo[de,g]chromen-4-yl 3-methylbut-2-enoate]", "values": [{"measurement": "IC50", "setting": "[5]", "result": 1640, "unit": "nM"}, {"measurement": "IC50", "setting": "[6]", "result": 8970, "unit": "nM"}, {"measurement": "IC50", "setting": "[7]", "result": 494, "unit": "nM"}, {"measurement": "IC50", "setting": "[8]", "result": 8910, "unit": "nM"}, {"measurement": "IC50", "setting": "[9]", "result": 3010, "unit": "nM"}]}, {"smiles": "COC(=O)[C@@]12OC[C@]34C([C@@H](O)[C@@H]1O)[C@@]1(C)CC(=O)C(OC(=O)CCCC[C@@H]5SC[C@@H]6NC(=O)N[C@@H]65)=C(C)[C@@H]1C[C@H]3OC(=O)[C@H](OC(=O)C=C(C)C)[C@@H]24", "note": "(stereo partly drawn) [Compound 51048, methyl (1R,2S,3S,3aS,3a1R,4R,6aR,7aR,11aS)-1,2-dihydroxy-8,11a-dimethyl-4-((3-methylbut-2-enoyl)oxy)-5,10-dioxo-9-((5-((3aS,4S,6aR)-2-oxohexahydro-1H-thieno[3,4-d]imidazol-4-yl)pentanoyl)oxy)-1,4,5,6a,7,7a,10,11,11a,11b-decahydro-2H-3,3a1-(epoxymethano)dibenzo[de,g]chromene-3(3aH)-carboxylate]", "values": [{"measurement": "binding activity with PI3Kγ (in words)", "setting": "[10]", "result": "relatively strong"}, {"measurement": "IC50", "setting": "[5]", "result": 1730, "unit": "nM"}, {"measurement": "IC50", "setting": "[6]", "result": 3560, "unit": "nM"}, {"measurement": "IC50", "setting": "[7]", "result": "> 10000", "unit": "nM"}, {"measurement": "IC50", "setting": "[8]", "result": 3170, "unit": "nM"}, {"measurement": "IC50", "setting": "[9]", "result": 1190, "unit": "nM"}]}, {"smiles": "COC(=O)[C@@]12OC[C@]34C([C@@H](O)[C@@H]1O)[C@@]1(C)CC(=O)C(OC(=O)CCCCCNC(=O)CCCC[C@@H]5SC[C@@H]6NC(=O)N[C@@H]65)=C(C)[C@@H]1C[C@H]3OC(=O)[C@H](OC(=O)C=C(C)C)[C@@H]24", "note": "(stereo partly drawn) [Compound 51052, methyl (1R,2S,3S,3aS,3a1R,4R,6aR,7aR,11aS)-1,2-dihydroxy-8,11a-dimethyl-4-((3-methylbut-2-enoyl)oxy)-5,10-dioxo-9-((6-(5-((3aS,4S,6aR)-2-oxohexahydro-1H-thieno[3,4-d]imidazol-4-yl)pentanamido)hexanoyl)oxy)-1,4,5,6a,7,7a,10,11,11a,11b-decahydro-2H-3,3a1-(epoxymethano)dibenzo[de,g]chromene-3(3aH)-carboxylate]", "values": [{"measurement": "association with GST-tagged PI3Kγ in vitro (in words)", "setting": "[11]", "result": "formed a complex"}, {"measurement": "IC50", "setting": "[5]", "result": 76, "unit": "nM"}, {"measurement": "IC50", "setting": "[6]", "result": 108, "unit": "nM"}, {"measurement": "IC50", "setting": "[7]", "result": 388, "unit": "nM"}, {"measurement": "IC50", "setting": "[8]", "result": 79, "unit": "nM"}, {"measurement": "IC50", "setting": "[9]", "result": 28, "unit": "nM"}]}]}
